In PubChem BioAssay AID248 (DTP/NCI, 2004):
“And” between values parts separate entries of the source, which are not always exact repeats. Identical values can stand only once. Inconclusive results and toxic doses are left out. Rule as the data show it: active = T/C of 150% or more; inactive = T/C below 125%.

Tested on: L1210 leukemia ip in BDF1 mice, survival T/C
Experiment: NCI In Vivo Anticancer Drug Screen. Data for tumor model L1210 Leukemia (intraperitoneal) in B6D2F1 (BDF1) mice
Settings: endpoint: mean survival time, higher = longer survival
How it was run: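 Tumor was transplanted into mice, which were then dosed with test compound or vehicle alone. Survival was recorded for each group, and the treated figure was expressed relative to the control figure.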

[1] = dose: 6.25 mg/kg/injection, schedule: Q01DX009 (ip), vehicle: saline with Tween-80
[2] = dose: 12.5 mg/kg/injection, schedule: Q01DX009 (ip), vehicle: saline with Tween-80
[3] = dose: 25.0 mg/kg/injection, schedule: Q01DX009 (ip), vehicle: saline with Tween-80
[4] = dose: 100.0 mg/kg/injection, schedule: Q04DX003 (ip), vehicle: Klucel (hydroxypropylcellulose) (HPC)
[5] = dose: 200.0 mg/kg/injection, schedule: Q04DX003 (ip), vehicle: Klucel (hydroxypropylcellulose) (HPC)
[6] = dose: 400.0 mg/kg/injection, schedule: Q04DX003 (ip), vehicle: Klucel (hydroxypropylcellulose) (HPC)
[7] = dose: 100.0 mg/kg/injection, schedule: Q01DX009 (ip), vehicle: saline
[8] = dose: 100.0 mg/kg/injection, schedule: Q04DX003 (ip), vehicle: saline
[9] = dose: 200.0 mg/kg/injection, schedule: Q04DX003 (ip), vehicle: saline
[10] = dose: 100.0 mg/kg/injection, schedule: Q01DX009 (ip), vehicle: Klucel (hydroxypropylcellulose) (HPC)
[11] = dose: 200.0 mg/kg/injection, schedule: Q01DX009 (ip), vehicle: Klucel (hydroxypropylcellulose) (HPC)
[12] = dose: 100.0 mg/kg/injection, schedule: Q04DX003 (ip), vehicle: saline with Tween-80
[13] = dose: 200.0 mg/kg/injection, schedule: Q04DX003 (ip), vehicle: saline with Tween-80

Measured: T/C

COC(=O)C1=C(C(=O)OC)C2(C)C=CC1O2 (stereo unspecified)
inactive: dose: 3.12 mg/kg/injection, schedule: Q01DX009 (ip), vehicle: saline with Tween-80 98 % of control | [1] 93 % of control | [2] 98 % of control and 105 % of control | [3] 106 % of control

CC(c1ccccc1)C1N(c2ccccc2)CCN1c1ccccc1 (stereo unspecified)
inactive: [4] 94 % of control | [5] 100 % of control | [6] 102 % of control

O=c1[nH]cc(CCCO)c(=O)[nH]1
inactive: [7] 88 % of control | [8] 103 % of control | dose: 200.0 mg/kg/injection, schedule: Q01DX009 (ip), vehicle: saline 93 % of control | [9] 100 % of control | dose: 400.0 mg/kg/injection, schedule: Q01DX009 (ip), vehicle: saline 88 % of control | dose: 400.0 mg/kg/injection, schedule: Q04DX003 (ip), vehicle: saline 92 % of control

Cc1ccc(-c2cc3ccccc3[nH]2)cc1
inactive: dose: 50.0 mg/kg/injection, schedule: Q01DX009 (ip), vehicle: Klucel (hydroxypropylcellulose) (HPC) 94 % of control | [10] 89 % of control | [4] 91 % of control | [11] 86 % of control | [5] 90 % of control

CC(C)n1c2c([n+](C)c1/C=C/c1ccccc1)C(=O)c1ccccc1C2=O
inactive: dose: 1.0 mg/kg/injection, schedule: Q01DX009 (ip), vehicle: Klucel (hydroxypropylcellulose) (HPC) 106 % of control | dose: 1.0 mg/kg/injection, schedule: Q04DX003 (ip), vehicle: Klucel (hydroxypropylcellulose) (HPC) 107 % of control | dose: 2.0 mg/kg/injection, schedule: Q01DX009 (ip), vehicle: Klucel (hydroxypropylcellulose) (HPC) 101 % of control | dose: 2.0 mg/kg/injection, schedule: Q04DX003 (ip), vehicle: Klucel (hydroxypropylcellulose) (HPC) 96 % of control | dose: 4.0 mg/kg/injection, schedule: Q04DX003 (ip), vehicle: Klucel (hydroxypropylcellulose) (HPC) 86 % of control | dose: 5.0 mg/kg/injection, schedule: Q01DX001 (ip), vehicle: saline 103 % of control

CC1(C)CCC2(CC1)CC(=O)OC2=O
inactive: [12] 95 % of control | [13] 97 % of control | dose: 400.0 mg/kg/injection, schedule: Q04DX003 (ip), vehicle: saline with Tween-80 98 % of control

COc1ccc(C(=O)C(C)CC(=O)O)cc1OC (stereo unspecified)
inactive: dose: 75.0 mg/kg/injection, schedule: Q01DX009 (ip), vehicle: Klucel (hydroxypropylcellulose) (HPC) 102 % of control | dose: 150.0 mg/kg/injection, schedule: Q01DX009 (ip), vehicle: Klucel (hydroxypropylcellulose) (HPC) 94 % of control | dose: 300.0 mg/kg/injection, schedule: Q01DX009 (ip), vehicle: Klucel (hydroxypropylcellulose) (HPC) 91 % of control

CCN(CC)CCOc1ccc(C=O)cc1
inactive: dose: 100.0 mg/kg/injection, schedule: Q04DX002 (ip), vehicle: saline 99 % of control | dose: 200.0 mg/kg/injection, schedule: Q04DX002 (ip), vehicle: saline 95 % of control

Nc1nc(Cl)c(Cl)nc1N
inactive: [4] 95 % of control | [5] 100 % of control | [6] 95 % of control

ClC1(Cl)C2CCCCC21N1CCCCC1 (stereo unspecified)
inactive: dose: 50.0 mg/kg/injection, schedule: Q01DX009 (ip), vehicle: saline 102 % of control | dose: 50.0 mg/kg/injection, schedule: Q04DX003 (ip), vehicle: saline 115 % of control | dose: 100.0 mg/kg/injection, schedule: Q01DX001 (ip), vehicle: saline 104 % of control | [7] 87 % of control | [8] 94 % of control | dose: 200.0 mg/kg/injection, schedule: Q01DX001 (ip), vehicle: saline 98 % of control | [9] 101 % of control

CCCCCc1cc(O)c(C2CC(C)CCC2C(C)C)c(OC(=O)c2ccc([N+](=O)[O-])cc2[N+](=O)[O-])c1 (stereo unspecified)
inactive: [4] 104 % of control | [5] 88 % of control | [6] 88 % of control

O=C(N/N=C/c1ccc2c(c1)CCC2)c1ccc(S(=O)(=O)O)cc1
inactive: [4] 97 % of control | [5] 104 % of control | [6] 97 % of control

COc1ccc(C)cc1NC(=O)c1c(Br)c(Br)c(Br)c(Br)c1C(=O)O
inactive: [10] 98 % of control | [11] 92 % of control

Cc1ncc2n1C=CN(C(=O)c1ccc([N+](=O)[O-])cc1)C2O (stereo unspecified)
inactive: dose: 100.0 mg/kg/injection, schedule: Q01DX009 (ip), vehicle: water 98 % of control | dose: 200.0 mg/kg/injection, schedule: Q01DX009 (ip), vehicle: water 98 % of control | dose: 400.0 mg/kg/injection, schedule: Q01DX009 (ip), vehicle: water 93 % of control

CC1=CC(=O)C=CC1(C)C
inactive: dose: 100.0 mg/kg/injection, schedule: Q01DX001 (ip), vehicle: Klucel (hydroxypropylcellulose) (HPC) 100 % of control | [10] 94 % of control | dose: 200.0 mg/kg/injection, schedule: Q01DX001 (ip), vehicle: Klucel (hydroxypropylcellulose) (HPC) 100 % of control | [11] 94 % of control | dose: 400.0 mg/kg/injection, schedule: Q01DX001 (ip), vehicle: Klucel (hydroxypropylcellulose) (HPC) 108 % of control

CCN(CC)C(=S)N1C(=O)C2C3CCC(O3)C2C1=O (stereo unspecified)
inactive: [1] 97 % of control | dose: 6.25 mg/kg/injection, schedule: Q04DX002 (ip), vehicle: saline 107 % of control | [2] 101 % of control | dose: 12.5 mg/kg/injection, schedule: Q04DX002 (ip), vehicle: saline 104 % of control | [3] 101 % of control | dose: 25.0 mg/kg/injection, schedule: Q04DX002 (ip), vehicle: saline 100 % of control

O=C(Nc1cccc(O)c1)c1ccccc1Cl
inactive: [10] 96 % of control | [11] 97 % of control | dose: 400.0 mg/kg/injection, schedule: Q01DX009 (ip), vehicle: Klucel (hydroxypropylcellulose) (HPC) 92 % of control

Nc1c2ccccc2nc2ccccc12
inactive: dose: 5.0 mg/kg/injection, schedule: Q01DX009 (ip), vehicle: Klucel (hydroxypropylcellulose) (HPC) 105 % of control | dose: 10.0 mg/kg/injection, schedule: Q01DX009 (ip), vehicle: Klucel (hydroxypropylcellulose) (HPC) 98 % of control | dose: 15.0 mg/kg/injection, schedule: Q01DX009 (ip), vehicle: Klucel (hydroxypropylcellulose) (HPC) 103 % of control | [12] 86 % of control | [13] 86 % of control

C[n+]1c(/C=C/c2c[nH]c3ccccc23)ccc2ccccc21
inactive: dose: 5.0 mg/kg/injection, schedule: Q01DX001 (ip), vehicle: acetone 101 % of control | dose: 10.0 mg/kg/injection, schedule: Q01DX001 (ip), vehicle: acetone 102 % of control | dose: 20.0 mg/kg/injection, schedule: Q01DX001 (ip), vehicle: acetone 96 % of control | dose: 40.0 mg/kg/injection, schedule: Q01DX001 (ip), vehicle: acetone 107 % of control | dose: 80.0 mg/kg/injection, schedule: Q01DX001 (ip), vehicle: acetone 100 % of control

O=C(C=C(C(F)(F)F)C(F)(F)F)c1cccc2ccccc12
inactive: dose: 12.5 mg/kg/injection, schedule: Q01DX009 (ip), vehicle: gum acacia 107 % of control | dose: 25.0 mg/kg/injection, schedule: Q01DX009 (ip), vehicle: gum acacia 100 % of control | dose: 50.0 mg/kg/injection, schedule: Q01DX009 (ip), vehicle: gum acacia 100 % of control | dose: 100.0 mg/kg/injection, schedule: Q04DX003 (ip), vehicle: gum acacia 100 % of control | dose: 200.0 mg/kg/injection, schedule: Q04DX003 (ip), vehicle: gum acacia 97 % of control | dose: 400.0 mg/kg/injection, schedule: Q04DX003 (ip), vehicle: gum acacia 91 % of control

COc1ccc(C2OC23CCCc2ccccc2C3=O)cc1 (stereo unspecified)
inactive: [4] 95 % of control | [5] 97 % of control | [6] 89 % of control

CCN(C(=O)c1ccc([N+](=O)[O-])cc1)C(c1ccccc1)P(=O)(c1ccccc1)c1ccccc1 (stereo unspecified)
inactive: dose: 100.0 mg/kg/injection, schedule: Q04DX002 (ip), vehicle: saline with Tween-80 89 % of control | dose: 200.0 mg/kg/injection, schedule: Q01DX009 (ip), vehicle: saline with Tween-80 95 % of control | dose: 400.0 mg/kg/injection, schedule: Q04DX002 (ip), vehicle: saline with Tween-80 88 % of control

C=C1CC(c2ccc(S(=O)(=O)N3CCCC3)cc2)OC1=O (stereo unspecified)
inactive: dose: 100.0 mg/kg/injection, schedule: Q04DX002 (ip), vehicle: Klucel (hydroxypropylcellulose) (HPC) 95 % of control | dose: 200.0 mg/kg/injection, schedule: Q04DX002 (ip), vehicle: Klucel (hydroxypropylcellulose) (HPC) 98 % of control
